Experiments:
[1] = target: T1, EGFR WT (Homo sapiens, UniProt P00533); assay: Enzymatic assay EGFR WT (method c); assay type: biochemical; conditions: [EGFR WT]=2 nM, [ATP]=1 mM, [Peptide 22]=1 μM
T1 construct: purchased Thermo Fisher, Carlsbad, CA ERBB1 PR7295B
Outline: (§1)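 Initial rates over 0–3600 s, read as substrate-to-product conversion by capillary electrophoresis, were converted to percent inhibition and fitted with a variable-slope curve to give IC50. Conditions: EGFR WT 2 nM with 1 mM ATP; HER2 YVMA 5 nM or HER2 WT 12.5 nM, each with 25 μM ATP. All used 1 μM Peptide 22 in pH 7.5 HEPES/Mn/Mg buffer.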

[2] = target: T2, HER2 wildtype (WT) protein (Homo sapiens, UniProt P04626); assay: HER2 signaling (pHER2 Tyr1248/total HER2 MSD) in BT474 cells; assay type: cell-based; conditions: 1.5 hr compound, 1% FBS
T2 construct: BT474 and N87 cell lines which endogenously overexpress the HER2 wildtype (WT) protein; endogenous in cells; host or cells: BT474, N87
Outline: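 BT474, N87 (HER2 WT) and NCI-H1781 (HER2 G776delinsVC) cells were treated for 1.5 h at 37° C in 1% FBS medium with compound at 0.0005–1.1 μM. pHER2 Tyr1248 was measured by MSD on whole-cell lysates and normalized to total HER2 as % DMSO. EC50 came from a variable-slope sigmoidal fit.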

[3] = target: HER2YVMA (Homo sapiens, UniProt P04626, INS775YVMA); assay: Enzymatic assay HER2YVMA (method b); assay type: biochemical; set-up: purchased Viva biotech, Shanghai, China custom purification; conditions: [HER2YVMA]=5 nM, [ATP]=25 μM, [Peptide 22]=1 μM
Outline: as §1

[4] = target: T3, HER2 WT (Homo sapiens, UniProt P04626); assay: Enzymatic assay HER2 WT (method a); assay type: biochemical; conditions: [HER2 WT]=12.5 nM, [ATP]=25 μM, [Peptide 22]=1 μM
T3 construct: purchased ProQinase, Freiburg, Germany ERBB2 0108-0000-1
Outline: as §1

T3 sequence (P04626 23-1255): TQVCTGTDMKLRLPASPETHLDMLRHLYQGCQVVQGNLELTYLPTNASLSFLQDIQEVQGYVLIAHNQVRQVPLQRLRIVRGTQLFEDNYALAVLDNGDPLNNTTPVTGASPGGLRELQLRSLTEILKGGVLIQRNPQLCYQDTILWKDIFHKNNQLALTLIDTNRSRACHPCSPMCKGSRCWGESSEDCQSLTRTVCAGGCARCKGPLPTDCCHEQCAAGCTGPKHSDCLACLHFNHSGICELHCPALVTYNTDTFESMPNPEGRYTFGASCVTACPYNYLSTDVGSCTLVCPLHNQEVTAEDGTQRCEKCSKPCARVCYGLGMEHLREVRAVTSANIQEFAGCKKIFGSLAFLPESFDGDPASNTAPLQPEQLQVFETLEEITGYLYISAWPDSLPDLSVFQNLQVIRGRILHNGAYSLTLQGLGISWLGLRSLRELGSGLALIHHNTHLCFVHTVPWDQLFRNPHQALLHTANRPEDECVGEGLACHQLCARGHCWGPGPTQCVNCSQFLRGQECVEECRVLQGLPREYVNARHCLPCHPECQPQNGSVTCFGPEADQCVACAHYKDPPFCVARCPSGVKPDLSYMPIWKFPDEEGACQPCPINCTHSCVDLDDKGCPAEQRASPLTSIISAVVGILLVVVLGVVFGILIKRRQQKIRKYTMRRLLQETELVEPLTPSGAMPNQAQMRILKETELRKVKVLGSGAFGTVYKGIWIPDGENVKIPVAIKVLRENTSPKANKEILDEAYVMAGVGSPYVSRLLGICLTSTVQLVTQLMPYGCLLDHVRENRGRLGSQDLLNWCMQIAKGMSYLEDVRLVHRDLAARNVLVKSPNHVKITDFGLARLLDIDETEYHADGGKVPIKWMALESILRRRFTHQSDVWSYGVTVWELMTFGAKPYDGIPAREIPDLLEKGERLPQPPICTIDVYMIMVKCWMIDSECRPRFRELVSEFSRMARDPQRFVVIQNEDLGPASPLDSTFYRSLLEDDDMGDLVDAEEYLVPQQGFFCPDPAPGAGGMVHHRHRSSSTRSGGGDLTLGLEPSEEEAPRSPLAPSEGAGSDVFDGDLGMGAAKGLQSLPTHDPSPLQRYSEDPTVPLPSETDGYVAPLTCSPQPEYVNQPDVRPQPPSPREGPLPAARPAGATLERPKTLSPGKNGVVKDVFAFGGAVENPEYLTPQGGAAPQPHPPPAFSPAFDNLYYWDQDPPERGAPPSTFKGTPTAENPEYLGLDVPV
T2 sequence (P04626 23-1255): as above
Sequence of HER2YVMA (P04626 with tags, fused parts or gaps INS775YVMA): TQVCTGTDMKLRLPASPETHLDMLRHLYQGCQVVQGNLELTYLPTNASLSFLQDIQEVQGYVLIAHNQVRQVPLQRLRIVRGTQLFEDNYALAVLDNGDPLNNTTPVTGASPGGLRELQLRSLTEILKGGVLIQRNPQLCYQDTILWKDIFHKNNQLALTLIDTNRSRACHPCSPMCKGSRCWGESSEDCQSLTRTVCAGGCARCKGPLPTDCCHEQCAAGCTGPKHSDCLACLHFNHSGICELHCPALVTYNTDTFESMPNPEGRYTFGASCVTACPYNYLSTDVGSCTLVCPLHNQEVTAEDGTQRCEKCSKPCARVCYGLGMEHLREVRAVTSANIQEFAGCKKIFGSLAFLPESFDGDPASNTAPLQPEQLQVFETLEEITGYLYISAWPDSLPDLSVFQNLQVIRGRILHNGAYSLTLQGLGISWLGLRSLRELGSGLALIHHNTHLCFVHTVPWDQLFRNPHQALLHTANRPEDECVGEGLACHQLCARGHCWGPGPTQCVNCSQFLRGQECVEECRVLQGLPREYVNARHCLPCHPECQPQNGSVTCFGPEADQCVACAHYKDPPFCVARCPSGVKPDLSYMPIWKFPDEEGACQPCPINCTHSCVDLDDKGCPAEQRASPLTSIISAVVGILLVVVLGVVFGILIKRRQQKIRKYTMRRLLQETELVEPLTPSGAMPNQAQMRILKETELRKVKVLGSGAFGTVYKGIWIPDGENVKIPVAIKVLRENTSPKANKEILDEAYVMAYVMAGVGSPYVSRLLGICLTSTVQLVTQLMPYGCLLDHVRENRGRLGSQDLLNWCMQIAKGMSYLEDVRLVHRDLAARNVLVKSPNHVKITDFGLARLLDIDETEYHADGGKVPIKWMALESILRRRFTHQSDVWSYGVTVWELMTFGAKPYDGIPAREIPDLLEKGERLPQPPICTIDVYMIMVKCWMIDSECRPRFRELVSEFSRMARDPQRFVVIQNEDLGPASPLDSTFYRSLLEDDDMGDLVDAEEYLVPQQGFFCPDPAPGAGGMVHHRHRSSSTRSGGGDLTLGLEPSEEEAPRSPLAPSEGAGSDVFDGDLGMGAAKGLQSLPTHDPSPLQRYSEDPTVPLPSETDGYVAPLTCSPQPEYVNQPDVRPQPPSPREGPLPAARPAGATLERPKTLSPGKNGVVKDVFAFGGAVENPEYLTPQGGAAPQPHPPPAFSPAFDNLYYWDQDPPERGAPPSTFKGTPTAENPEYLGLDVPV
T1 sequence (P00533 25-1210): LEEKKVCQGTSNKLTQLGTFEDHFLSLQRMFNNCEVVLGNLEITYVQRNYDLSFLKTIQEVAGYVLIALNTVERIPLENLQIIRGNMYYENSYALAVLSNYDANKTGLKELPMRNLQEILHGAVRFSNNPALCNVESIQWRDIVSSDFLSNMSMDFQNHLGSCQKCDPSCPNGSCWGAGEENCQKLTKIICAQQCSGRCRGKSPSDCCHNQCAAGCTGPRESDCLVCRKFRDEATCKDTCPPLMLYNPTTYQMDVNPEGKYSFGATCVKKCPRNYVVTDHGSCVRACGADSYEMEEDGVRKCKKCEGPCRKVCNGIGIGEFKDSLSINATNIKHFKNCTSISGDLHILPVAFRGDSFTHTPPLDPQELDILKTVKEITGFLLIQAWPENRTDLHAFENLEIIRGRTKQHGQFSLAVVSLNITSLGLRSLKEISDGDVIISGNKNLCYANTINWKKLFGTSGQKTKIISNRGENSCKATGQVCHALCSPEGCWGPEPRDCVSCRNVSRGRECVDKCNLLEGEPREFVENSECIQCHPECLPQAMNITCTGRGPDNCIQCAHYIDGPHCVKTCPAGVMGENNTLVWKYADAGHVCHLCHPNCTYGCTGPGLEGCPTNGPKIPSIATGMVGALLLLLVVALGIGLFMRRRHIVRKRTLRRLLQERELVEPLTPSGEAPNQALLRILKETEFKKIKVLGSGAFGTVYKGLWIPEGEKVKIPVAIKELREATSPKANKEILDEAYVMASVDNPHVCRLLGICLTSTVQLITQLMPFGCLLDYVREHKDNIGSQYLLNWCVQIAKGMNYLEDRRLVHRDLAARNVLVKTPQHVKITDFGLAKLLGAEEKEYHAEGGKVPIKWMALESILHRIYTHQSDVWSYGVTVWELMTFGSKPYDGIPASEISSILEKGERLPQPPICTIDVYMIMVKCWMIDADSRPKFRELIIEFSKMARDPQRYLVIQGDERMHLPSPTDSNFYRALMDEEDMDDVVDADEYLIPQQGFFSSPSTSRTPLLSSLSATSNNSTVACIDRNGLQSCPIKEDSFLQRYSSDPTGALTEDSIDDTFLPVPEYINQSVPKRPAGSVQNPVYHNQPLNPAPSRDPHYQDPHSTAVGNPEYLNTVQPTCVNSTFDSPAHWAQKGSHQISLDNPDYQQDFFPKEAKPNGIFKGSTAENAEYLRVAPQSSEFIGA

Compound	IC50 [1] [nM]	EC50 [2] [nM]	IC50 [3] [nM]	IC50 [4] [nM]
Cc1ccc(Oc2ccc(Nc3ncnc4sc5c(c34)CCN(C(=O)/C=C/CN[C@H]3CC[C@H](OCC(F)(F)F)CC3)C5)cc2C)cn1 [Compound 70]	1000 to 10000	< 100	< 100	< 100
Cc1cc(Nc2ncnc3sc4c(c23)CCN(C(=O)/C=C/CN2CC3CCC(C3)C2)C4)ccc1Oc1ccc2ncnn2c1 [Compound 20]	1000 to 10000	< 100	< 100	< 100
Cc1ccc(Oc2ccc(Nc3ncnc4sc5c(c34)CCN(C(=O)/C=C/CN[C@@H](C)CO)C5)cc2C)cn1 [Compound 75]	1000 to 10000	< 100	< 100	< 100
Cc1ccc(Oc2ccc(Nc3ncnc4sc5c(c34)CCN(C(=O)/C=C/CN(CCO)CCO)C5)cc2C)cn1 [Compound 37]	1000 to 10000	< 100	< 100	< 100
Cc1ccc(Oc2ccc(Nc3ncnc4sc5c(c34)CCN(C(=O)/C=C/CN3CC(O)CO3)C5)cc2C)cn1 (stereo not drawn) [Compound 43]	> 10000	350 to 1000	100 to 1000	100 to 1000
Cc1ccc(Oc2ccc(Nc3ncnc4sc5c(c34)CCN(C(=O)/C=C/CN3CCCOCC3)C5)cc2C)cn1 [Compound 42]	> 10000	< 100	< 100	< 100
Cc1cc(Nc2ncnc3sc4c(c23)CCN(C(=O)/C=C/CN(C)C)C4)ccc1Oc1ccc2ncnn2c1 [Compound 3, (E)-1-(4-((4-([1,2,4]triazolo[1,5-a]pyridin-6-yloxy)-3-methylphenyl)amino)-5,8-dihydropyrido[4′,3′:4,5]thieno[2,3-d]pyrimidin-7(6H)-yl)-4-(dimethylamino)but-2-en-1-one]	1000 to 10000	< 100	100 to 1000	< 100
C=CC(=O)N1CCc2c(sc3ncnc(Nc4ccc(Oc5ccc6ncnn6c5)c(Cl)c4)c23)C1 [Compound 4, 1-(4-((4-([1,2,4]triazolo[1,5-a]pyridin-6-yloxy)-3-chlorophenyl)amino)-5,8-dihydropyrido[4′,3′:4,5]thieno[2,3-d]pyrimidin-7(6H)-yl)prop-2-en-1-one]	> 10000	< 100	< 100	< 100
CNC(=O)CNC/C=C/C(=O)N1CCc2c(sc3ncnc(Nc4ccc(Oc5ccc(C)nc5)c(C)c4)c23)C1 [Compound 39]	> 10000	100 to 350	< 100	< 100
Cc1ccc(Oc2ccc(Nc3ncnc4sc5c(c34)CCN(C(=O)/C=C/CN3CC4CC3CO4)C5)cc2C)cn1 (stereo not drawn) [Compound 26]	> 10000	< 100	< 100	< 100
CCOC/C=C/C(=O)N1CCc2c(sc3ncnc(Nc4ccc(Oc5ccc(C)nc5)c(C)c4)c23)C1 [Compound 96, (E)-4-ethoxy-1-(4-((3-methyl-4-((6-methylpyridin-3-yl)oxy)phenyl)amino)-5,8-dihydropyrido[4′,3′:4,5]thieno[2,3-d]pyrimidin-7(6H)-yl)but-2-en-1-one]	> 10000	< 100	< 100	< 100
Cc1ccc(Oc2ccc(Nc3ncnc4sc5c(c34)CCN(C(=O)/C=C/CNC3CCC(C(=O)N(C)C)CC3)C5)cc2C)cn1 (stereo not drawn) [Compound 71]	1000 to 10000	< 100	< 100	< 100
Cc1ncc(Oc2ccc(Nc3ncnc4sc5c(c34)CCN(C(=O)/C=C/CN(C)C)C5)cc2C)cn1 [Compound 21, (E)-4-(dimethylamino)-1-(4-((3-methyl-4-((2-methylpyrimidin-5-yl)oxy)phenyl)amino)-5,8-dihydropyrido[4′,3′:4,5]thieno[2,3-d]pyrimidin-7(6H)-yl)but-2-en-1-one]	> 10000	< 100	100 to 1000	100 to 1000
Cc1ccc(Oc2ccc(Nc3ncnc4sc5c(c34)CCN(C(=O)/C=C/CN3CC4C(CO)C4C3)C5)cc2C)cn1 (stereo not drawn) [Compound 34]	> 10000	< 100	< 100	< 100
CN(C/C=C/C(=O)N1CCc2c(sc3ncnc(Nc4ccc(Oc5ccc6ncnn6c5)c(Cl)c4)c23)C1)C(C)(C)C [Compound 91]	> 10000	< 100	< 100	< 100
Cc1ccc(Oc2ccc(Nc3ncnc4sc5c(c34)CCN(C(=O)/C=C/CN3CCC(n4ccnc4)CC3)C5)cc2C)cn1 [Compound 62]	> 10000	< 100	< 100	< 100
COc1ccc(Oc2ccc(Nc3ncnc4sc5c(c34)CCN(C(=O)/C=C/CN(C)C)C5)cc2C)cn1 [Compound 95, (E)-4-(Dimethylamino)-1-(4-((4-((6-methoxypyridin-3-yl)oxy)-3-methylphenyl)amino)-5,6-dihydropyrido[4′,3′:4,5]thieno[2,3-d]pyrimidin-7(8H)-yl)but-2-en-1-one]	> 10000	< 100	< 100	< 100
Cc1cc(Nc2ncnc3sc4c(c23)CCN(C(=O)/C=C/CN2CC(C)(C)OC(C)(C)C2)C4)ccc1Oc1ccc2ncnn2c1 [Compound 84]	> 10000	< 100	100 to 1000	100 to 1000
Cc1ccc(Oc2ccc(Nc3ncnc4[nH]c5c(c34)CN(C(=O)/C=C/CN(C)C)CC5)cc2C)cn1 [Compound 97, (E)-4-(dimethylamino)-1-(4-((3-methyl-4-((6-methylpyridin-3-yl)oxy)phenyl)amino)-5,7,8,9-tetrahydro-6H-pyrido[3′,4′:4,5]pyrrolo[2,3-d]pyrimidin-6-yl)but-2-en-1-one]	> 10000	< 100	< 100	< 100
Cc1ccc(Oc2ccc(Nc3ncnc4sc5c(c34)CCN(C(=O)/C=C/CNC34CCC(C#N)(CC3)CC4)C5)cc2C)cn1 [Compound 72]	1000 to 10000	< 100	< 100	< 100
Cc1ccc(Oc2ccc(Nc3ncnc4sc5c(c34)CCN(C(=O)/C=C/CN3CCC(O)C3)C5)cc2C)cn1 (stereo not drawn) [Compound 74]	1000 to 10000	< 100	< 100	< 100
Cc1ccc(Oc2ccc(Nc3ncnc4sc5c(c34)C(C)CN(C(=O)C=CCN(C)C)C5)cc2C)cn1 (single isomer, unassigned) [Compound 105]	> 10000	< 100	< 100	< 100
Cc1ccc(Oc2ccc(Nc3ncnc4sc5c(c34)CCN(C(=O)/C=C/CNCCO)C5)cc2C)cn1 [Compound 65]	1000 to 10000	< 100	< 100	< 100
O=C(/C=C/CN1CC2CCC(C2)C1)N1CCc2c(sc3ncnc(Nc4ccc(Oc5ccc6ncnn6c5)c(Cl)c4)c23)C1 [Compound 88]	> 10000	< 100	< 100	< 100
Cc1cc(Nc2ncnc3sc4c(c23)CCN(C(=O)/C=C/CN2CC3C(CO)C3C2)C4)ccc1Oc1ccc2ncnn2c1 (stereo not drawn) [Compound 81]	> 10000	< 100	< 100	< 100
Cc1ccc(Oc2ccc(Nc3ncnc4sc5c(c34)CCN(C(=O)/C=C/CNC3COC3)C5)cc2C)cn1 [Compound 38]	> 10000	< 100	< 100	< 100
Cc1ccc(Oc2ccc(Nc3ncnc4sc5c(c34)CCN(C(=O)/C=C/CN3C4CCC3CC4)C5)cc2C)cn1 [Compound 44]	1000 to 10000	< 100	< 100	< 100
